A short description of data set [1]: Maximum tolerance (death observed 48 hours after administration). Particulars: mouse, in vivo; mice; dose just smaller than the dose inducing death, observed 48 hours after the administration.
The nature of data set [2]: Level of hopanthenic acid in blood plasma after oral administration (GC-MS). The format is in vivo, SD-male rats. Particulars: rat, 389.4 umol/kg, 389.4 µmole/kg, rats, n=4, read-out: Level of hopanthenic acid in the blood plasma (average ± S.D.). The method, then: SD-male rats, weighing about 200 g, 7 weeks age, having been fasted overnight (one group: 4 rats) were used. To each rat was orally administered a suspension (2 ml) of a test compound in a 0.5 % carboxymethyl cellulose solution with a stomach sonde (dose of test compound: […], corresponding to 100 mg/kg of calcium hopanthenate).
One or two hours after the aministration, the rats were killed by cutting whole carotid arteries, and the blood was collected. The blood of each rat was centrifuged (2,800 r.p.m., 15 minutes) to separate blood plasma. Concentration of hopanthenic acid in the blood plasma (0.1 ml) was measured by gas chromatography and mass spectrometry.

The nature of data set [3]: Level of hopanthenic acid in the cerebrum after oral administration (GC-MS). The format is in vivo, SD-male rats. Particulars: rat, 389.4 umol/kg, 389.4 µmole/kg, rats, n=4, read-out: Level of hopanthenic acid in the cerebrum (average ± S.D.). The method, then:
SD-male rats, weighing about 200 g, 7 weeks age, having been fasted overnight (one group: 4 rats) were used. To each rat was orally administered a suspension (2 ml) of a test compound in a 0.5 % carboxymethyl cellulose solution with a stomach sonde (dose of test compound: 389.4 #mole/kg, corresponding to 100 mg/kg of calcium hopanthenate). Two or three hours after the administration, the cerebrum was taken out and washed with physiological saline solution. To the cerebrum was added 9 times volume of water, and the mixture was homogenated with a homogenizer for one minute under ice-cooling and then centrifuged at 10,000 r.p.m. at 4°C for one hour. Concentration of hopanthenic acid in the supernatant (1 ml, corresponding to 0.1 g of the cerebrum) was measured by gas chromatography and mass spectrometry. The test compounds were the same as used in Experiment 1.

[4] abbreviates: Two hours after the administration.

The structures appear in SMILES notation.

For the molecule `CC(C)C(=O)OCC(C)(C)[C@@H](O)C(=O)NCCCC(=O)O`, the maximal tolerated dose (MTD) at 48 h in data set [1] was over 2000 mg/kg.

With `CC(C)CC(=O)OCC(C)(C)[C@@H](O)C(=O)NCCCC(=O)O` [Compound No. 2, D-4-[N-(4-Isovaleryloxy-3,3-dimethyl-2-hydroxy-n-butyryl)-amino]-n-butyric acid], the maximal tolerated dose (MTD) at 48 h in data set [1] was over 2000 mg/kg.

Turning to `CC(C)(CO)[C@@H](O)C(=O)NCCCC(=O)O` [Control, Calcium D-4-[N-(2,4-dihydroxy-3,3-dimethyl-n-butyryl)amino]-n-butyrate], the concentration at 1 h in data set [2] (One hour after the administration) is 19400 ± 1900 ng/mL. Moreover, the concentration at 2 h is 14200 ± 1600 ng/mL in data set [2] (setting [4]) and 700 ± 110 ng/g in data set [3] (setting [4]). Also, the concentration at 3 h in data set [3] (Three hours after the administration) turned out to be 370 ± 70 ng/g.
